This note sets out measurements from ChEMBL document CHEMBL1132186, “Structure-based design of selective inhibitors of dihydrofolate reductase: synthesis and antiparasitic activity of 2, 4-diaminopteridine analogues with a bridged diarylamine side chain” (J Med Chem, 1999).

Experiment [1] can be described thus: Ratio of Dihydrofolate reductase inhibitory activity in rat to Pneumocystis carinii.
Experiment [2] can be described thus: Ratio of Dihydrofolate reductase inhibitory activity in rat to Toxoplasma gondii.
Experiment [3] concerns the target T1, Dihydrofolate reductase (Mycobacterium avium, UniProt O30463).
T1 sequence (O30463 whole entry): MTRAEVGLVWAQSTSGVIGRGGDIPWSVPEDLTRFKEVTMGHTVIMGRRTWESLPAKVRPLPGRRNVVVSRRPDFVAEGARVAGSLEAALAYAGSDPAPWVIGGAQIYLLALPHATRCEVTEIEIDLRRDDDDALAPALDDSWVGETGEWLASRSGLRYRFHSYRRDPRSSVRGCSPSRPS
As to the kind of experiment: Inhibitory activity against DHFR (Dihydrofolate reductase) from Mycobacterium avium.

The target in experiment [4] is T2, Dihydrofolate reductase (Rattus norvegicus, UniProt Q920D2).
T2 sequence (Q920D2 whole entry): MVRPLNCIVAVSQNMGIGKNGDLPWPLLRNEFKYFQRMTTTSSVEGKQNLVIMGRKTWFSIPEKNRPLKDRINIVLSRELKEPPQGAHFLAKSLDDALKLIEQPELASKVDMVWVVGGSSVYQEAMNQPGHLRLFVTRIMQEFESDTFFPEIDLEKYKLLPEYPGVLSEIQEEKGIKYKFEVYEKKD
Nature of the experiment: Inhibitory activity against DHFR (Dihydrofolate reductase) from Rat liver.

Experiment [5] concerns the target T3, Bifunctional dihydrofolate reductase-thymidylate synthase (Toxoplasma gondii, UniProt Q07422).
T3 sequence (Q07422 whole entry): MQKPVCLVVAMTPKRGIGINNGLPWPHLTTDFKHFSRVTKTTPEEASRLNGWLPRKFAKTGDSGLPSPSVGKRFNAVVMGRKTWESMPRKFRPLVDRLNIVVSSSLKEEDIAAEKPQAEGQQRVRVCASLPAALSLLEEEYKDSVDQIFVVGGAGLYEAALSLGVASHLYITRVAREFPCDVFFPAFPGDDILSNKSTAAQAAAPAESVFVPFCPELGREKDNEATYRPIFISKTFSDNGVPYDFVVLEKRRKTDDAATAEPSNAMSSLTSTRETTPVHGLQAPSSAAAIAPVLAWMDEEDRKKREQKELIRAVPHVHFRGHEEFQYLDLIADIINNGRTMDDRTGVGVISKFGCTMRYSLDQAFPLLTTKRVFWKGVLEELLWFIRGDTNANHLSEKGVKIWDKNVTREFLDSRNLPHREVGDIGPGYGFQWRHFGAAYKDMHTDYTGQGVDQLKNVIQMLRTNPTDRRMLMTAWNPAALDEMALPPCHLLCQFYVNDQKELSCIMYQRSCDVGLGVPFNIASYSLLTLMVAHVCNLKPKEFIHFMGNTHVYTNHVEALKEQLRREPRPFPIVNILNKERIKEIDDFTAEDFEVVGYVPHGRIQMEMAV
Nature of the experiment: Inhibitory activity against DHFR (Dihydrofolate reductase) from Toxoplasma gondii.

Experiment [6] is described as follows: Ratio of Dihydrofolate reductase inhibitory activity in rat to Mycobacterium avium.
Experiment [7] has as its target T4, Dihydrofolate reductase (Pneumocystis carinii, UniProt P16184).
T4 sequence (P16184 whole entry): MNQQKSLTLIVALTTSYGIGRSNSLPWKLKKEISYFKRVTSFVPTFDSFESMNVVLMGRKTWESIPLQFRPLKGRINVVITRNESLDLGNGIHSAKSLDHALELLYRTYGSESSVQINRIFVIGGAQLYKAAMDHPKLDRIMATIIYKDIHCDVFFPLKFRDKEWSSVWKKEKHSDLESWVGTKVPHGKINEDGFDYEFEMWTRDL
Description: Inhibitory activity against DHFR (Dihydrofolate reductase) from Pneumocystis carinii.

With `Nc1nc(N)c2nc(CN3c4ccccc4CCc4ccccc43)cnc2n1`, the Selectivity ratio in experiment [1] worked out at 3.6; in experiment [2], 5.6.

Turning to `Nc1nc(N)c2nc(CN3c4ccccc4Sc4ccccc43)cnc2n1`, the IC50 came out at 29 nM at Dihydrofolate reductase [3], 200 nM at Dihydrofolate reductase [4], 110 nM in experiment [5] and 120 nM against Dihydrofolate reductase [7]. For the same compound, the Selectivity ratio amounted to 6.9 in experiment [6], 1.7 in experiment [1] and 1.8 in experiment [2].

As for `Nc1nc(N)c2nc(CN(c3ccccc3)c3ccccc3)cnc2n1`, the values for the IC50 against Dihydrofolate reductase [3] and on Dihydrofolate reductase [4] were 3700 nM and 4000 nM, respectively. Also, the Selectivity ratio in experiment [6] stood at 1.1; in experiment [1] it was 0.82; in experiment [2], 3.1.

As for `Nc1nc(N)c2nc(CN3c4ccccc4C=Cc4ccccc43)cnc2n1`, the values for the IC50 (against Dihydrofolate reductase [3]; in experiment [5]) were 12 nM and 43 nM, respectively. Further, the values for the Selectivity ratio in experiment [6], in experiment [1] and in experiment [2] were 367, 21 and 102, respectively.

In the case of `Nc1nc(N)c2nc(CN3c4ccccc4Cc4ccccc43)cnc2n1`, the half-maximal inhibitory concentration (IC50) on Dihydrofolate reductase [3] is 17 nM; against Dihydrofolate reductase [4], 27 nM; in experiment [5], 29 nM; on Dihydrofolate reductase [7] it was 42 nM. The figures for the Selectivity ratio in experiment [6], in experiment [1] and in experiment [2] were 1.6, 0.64 and 0.93, respectively.

Consider `Nc1nc(N)c2nc(CN3c4ccccc4Oc4ccccc43)cnc2n1`, for which the 50% inhibitory concentration (IC50) against Dihydrofolate reductase [4] amounted to 13000 nM; in experiment [5] it was 2200 nM; against Dihydrofolate reductase [7], 3400 nM.

In the case of `Nc1nc(N)c2nc(Cn3c4ccccc4c4ccccc43)cnc2n1`, the results for the IC50 (at Dihydrofolate reductase [4]; in experiment [5]; on Dihydrofolate reductase [7]) were 55 nM, 12 nM and 100 nM, respectively. Also, the Selectivity ratio is 0.55 in experiment [1] and 4.6 in experiment [2].

One may read the IC50 as the concentration needed to halve the response being measured. Low readings indicate greater potency in that assay, high ones weaker potency in that assay.
